Reference: US8207139B2, “Function of GPR4 in vascular inflammatory response to acidosis and related methods” (priority 2009, dated 2012)
Entries after “also recorded” stand apart in the source; their conditions may differ.

Tests used:
[1] = test system: acidosis/GPR4-induced HUVEC cell adhesion; assay: HUVEC-U937 monocyte cell adhesion assay; format: cell-based, human; settings: treatment with cAMP pathway activators, attachment of U937 monocytes as readout
[2] = test system: acidosis/GPR4-induced HUVEC cell adhesion; assay: HUVEC-U937 monocyte cell adhesion assay; format: cell-based, human; settings: HUVEC cells treated with acidic pH, attachment of U937 monocytes as readout
Method: Cell adhesion assay: To examine the adhesion of HUVEC endothelial cells and to model the interaction between endothelium and immune cells, the HUVEC-U937 monocyte adhesion assay was used as a functional readout. […] In brief, HUVEC endothelial cells were cultured in a 24-well plate to form a confluent monolayer, and treated with EGM-2/HEM media at various pHs for 5 to 15 hours. After the pH treatment, HUVEC cells were washed once with DMEM medium (pH 7.4), and then U937 monocytic cells resuspended in DMEM with 10% fetal bovine serum (FBS) were added to the HUVEC monolayer to allow adhesion for 1 hour at pH 7.4. Non-adherent cells were removed by gently washing several times with DMEM medium.
Effects on HUVEC cell adhesion: HUVEC cells with GPR4 siRNA or control siRNA were treated with different pHs, and the U937-HUVEC cell adhesion assay was performed.

| Compound | effect on adhesion of HUVEC cells [1] | effect on acidosis/GPR4-induced HUVEC cell adhesion [2] |
| --- | --- | --- |
| pertussis toxin | enhanced; also recorded: increases |  |
| C[C@H]1O[C@@H](n2cnc3c(N)ncnc32)C[C@@H]1O [2′,5′-dideoxyadenosine] |  | reduced; also recorded: abolishes; also recorded: diminishes |
| O=S(=O)(NCCNC/C=C/c1ccc(Br)cc1)c1cccc2cnccc12 [H-89] |  | did not affect; also recorded: does not affect |
| CO[C@@H]1[C@@H]2OP(=O)(O)OC[C@H]2O[C@H]1n1c(Sc2ccc(Cl)cc2)nc2c(N)ncnc21 [8-CPT-2Me-cAMP] | increases |  |
| Nc1ncnc2c1ncn2C1CCCO1 (centres unmarked) [SQ 22536] |  | abolishes; also recorded: reduces |
